# Assay results: US9699976B2, “Direct and indirect organogenesis of Jatropha” (TEMASEK LIFE SCIENCES LABORATORY LTD., priority 2012, dated 2017)
# Key:
# [1] = tested on: thin sections of petiole, pedicle, peduncle and rachis explants of Jatropha curcas; assay: Shoot bud induction directly from thin sections of explants (direct organogenesis); type: cell-based; conditions: only BA and Kn alone in the medium
# Method: The petiole from 2nd to 4th leaf and pedicle, peduncle and rachis from inflorescence before the onset of flowering were selected as explant for the present study. Explants were initially washed in running tap water for 5 min and followed by wash in chlorohexidine surgical wash (two drops in 100 ml of distilled water) for 10 min to remove the adhering particles on the surface. The explants were surface sterilized in 0.1% HgCl2 for 10 min followed by 3 washes using sterilized distilled water.
# The chemicals used in the present study were purchased from Duchefa Biochemie, Haarlem, The Netherlands and Sigma Aldrich, Inc., St Louis, USA. The culture media composed of MS basal salts, B5 vitamins, 3% sucrose and 0.8% agar as solidifying agent. The pH of the media is adjusted to 5.6-5.8 before autoclaving. All the cultures were incubated at 25±2° C. with 16 hr light/8 hr dark photoperiod conditions at a light intensity of 150 μEm^−2s^−1. The culture conditions are same throughout the stages of organogenesis.
# The thin sections of all the explants (petiole, pedicle, peduncle and rachis) and the calli initiated from different explants (petiole, pedicle, […]; […]).
# Thin sections of explants placed on shoot induction medium expanded and bended towards up and started to produce adventitious buds from the explants within 2 weeks. […]
# [2] = tested on: elongated shoots of Jatropha curcas; assay: Maturation of elongated shoots on maturation medium; type: cell-based; conditions: BA present in maturation medium; abnormal shoot production and in vitro flowering
# Method: The chemicals used in the present study were purchased from Duchefa Biochemie, Haarlem, The Netherlands and Sigma Aldrich, Inc., St Louis, USA. The culture media composed of MS basal salts, B5 vitamins, 3% sucrose and 0.8% agar as solidifying agent. The pH of the media is adjusted to 5.6-5.8 before autoclaving. All the cultures were incubated at 25±2° C. with 16 hr light/8 hr dark photoperiod conditions at a light intensity of 150 μEm^−2s^−1. The culture conditions are same throughout the stages of organogenesis. […] Elongated shoots were separated from the clump and cultured on the Maturation medium containing Kn (1.17 μM), AdSO4 (135.75 μM), GA3 (0.73 μM) IBA (0.49 μM) and casein hydrolysate (100 mg/l). Well elongated shoots were separated carefully from the clumps and transferred to maturation medium to induce physiological maturity. Most of the shoots culture in the maturation medium reached maturity within 3 weeks whereas some shoots still need additional 3 weeks and were cultured in the same medium to bring physiological maturity.
# [3] = tested on: petiole explant of Jatropha curcas; conditions: medium containing 2.27 μM TDZ; Kumar et al. (2011b); cited from earlier work
Compound,effect on shoot bud induction from the tested explants [1],effect of presence in maturation medium on shoot maturation [2],average shoots per 0.5 cm length petiole explant [3],response with petiole explant [3]
"c1ccc(CNc2ncnc3nc[nH]c23)cc1 [BA, 6-benzylaminopurine]",no effect,hindered maturation,–,–
"c1coc(CNc2ncnc3[nH]cnc23)c1 [Kn, kinetin]",no effect,–,–,–
"O=C(Nc1ccccc1)Nc1cnns1 [TDZ, thidiazuron]",–,–,4.98 shoots per explant,57.61%
